# Reference: patent US4885239A, “Rapid differentiation of bacteria using polyether antibiotics” (Eastman Kodak Company, priority 1986, dated 1989)
# Key:
# K. pneumoniae = assay: dye formation from RIND VII in presence of calimycin, K. pneumoniae; assay type: cell-based, Klebsiella pneumoniae (ATCC 13883); parameters: key: 0: no dye formation; +/-: faint dye formation; 1+: light dye formation; 2+: moderate dye formation; 3+: strong dye formation; 4+: very strong dye formation; details: calimycin 10^-3 molar, calcium chloride
# Method: (§1) gram-negative bacteria Enterobacter cloacae (ATCC 23355), Escherichia coli (ATCC 25922), Proteus vulgaris (ATCC 13315), Klebsiella pneumoniae (ATCC 13883) and Pseudomonas aeruginosa (ATCC 27853), and gram-positive bacteria Staphylococcus aureus (ATCC 25923) and Streptococcus pyogenes (ATCC 19615), and brain heart infusion (BHI) broth from Difco Laboratories (Detroit, Mich.),
# (§2) Bacterial suspensions were prepared by growing the cells in BHI to stationary phase overnight at 37° C. P. aeruginosa was grown with agitation. […]
# (§3) TERGITOL 7 anionic surfactant was used to differentiate viable bacteria according to the prior art method. […] The amount of dye formed was then determined visually and graded as follows: 0 indicates no dye formation, +/- indicates faint dye formation, 1+ indicates light dye formation, 2+ indicates moderate dye formation, 3+ indicates strong dye formation, and 4+ indicates very strong dye formation.
# (§4) Calimycin, a polyether antibiotic, was similarly used with RIND VII in the differentiation of bacteria. Assays were performed as described above, except that 25 μl of 1 molar calcium chloride solution was added to each test solution and the P. aeruginosa response was measured in the presence of 10% yeast extract as the carbon source instead of glucose. […]
# P. aeruginosa = assay: dye formation from RIND VII in presence of calimycin, P. aeruginosa; assay type: cell-based, Pseudomonas aeruginosa (ATCC 27853); parameters: key: 0: no dye formation; +/-: faint dye formation; 1+: light dye formation; 2+: moderate dye formation; 3+: strong dye formation; 4+: very strong dye formation; details: calimycin 10^-3 molar, calcium chloride, 10% yeast extract instead of glucose
# Method: as §1, §2, §3, §4
# S. aureus = assay: dye formation from RIND VII in presence of calimycin, S. aureus; assay type: cell-based, Staphylococcus aureus (ATCC 25923); parameters: key: 0: no dye formation; +/-: faint dye formation; 1+: light dye formation; 2+: moderate dye formation; 3+: strong dye formation; 4+: very strong dye formation; details: calimycin 10^-3 molar, calcium chloride
# Method: as §1, §2, §3, §4
# S. pyogenes = assay: dye formation from RIND VII in presence of calimycin, S. pyogenes; assay type: cell-based, Streptococcus pyogenes (ATCC 19615); parameters: key: 0: no dye formation; +/-: faint dye formation; 1+: light dye formation; 2+: moderate dye formation; 3+: strong dye formation; 4+: very strong dye formation; details: calimycin 10^-3 molar, calcium chloride
# Method: as §1, §2, §3, §4
# E. coli (gram -) = assay: change in relative fluorescence with water-compatible RIND XXXV (Example 4), E. coli; assay type: cell-based, Escherichia coli (ATCC 25922); details: 37° C., without antibiotic 2539
# Method: as §1
# (§5) Bacterial suspensions were prepared by growing the cells in BHI to stationary phase overnight at 37° C. P. aeruginosa was grown with agitation. About 40 ml of overnight cultures were centrifuged, decanted and washed once with 0.05 molar potassium phosphate buffer or 0.05 molar N-2-hydroxyethylpiperazine-N'-2-ethanesulfonic acid (HEPES) buffer, pH 7.8, and resuspended in buffer.
# A dispersion containing a RIND compound was prepared by dissolving RIND VII from Table II above in N,N-dimethylformamide (DMF) at 16 mg compound per ml of solvent. An aliquot (250 μl) of the resulting solution was added to 500 μl of TRITON X-100 surfactant. This mixture was then added dropwise with stirring to 25 ml of 0.05 molar HEPES buffer. A solution containing a water-compatible RIND compound XXXV was prepared by dissolving the compound (16 mg/ml) in N,N-dimethylformamide which had been acidified with a 0.1% sulfuric acid solution.
# A solution was prepared from the following components: 100 μl RIND XXXV solution (16 mg/ml acidified N,N-dimethylformamide), 200 μl glucose solution (10% in water), 200 μl trimethyl-1,4-benzoquinone ETA solution (1.5 mg/ml methanol) and 10 ml HEPES buffer.
# Test solutions were prepared from the following reagents: 50 μl HEPES buffer, 50 μl polyether antibiotic A23187 (free acid, 0.01 molar in methanol), 10 μl calcium chloride solution (1 molar) (serial dilutions of buffer and antibiotic were performed to obtain various antibiotic concentrations), 50 μl of the appropriate cell suspensions (E. coli, about 10^8 cells/ml and S. aureus, about 10^8 cells/ml) and 200 μl of the RIND solution. Control solutions were prepared as described in Examples 2 and 3.
# Relative fluorescence was measured using a standard spectrophotometer modified to read at excitation of 540 nm and emission of 620 nm. The change (Δ) in relative fluorescence was determined after 30 minutes at 37° C. for several concentration levels of antibiotic.
# S. aureus (gram +) [1] = assay: change in optical density with tetrazolium salt MTT (Example 5), S. aureus; assay type: cell-based, Staphylococcus aureus (ATCC 25923); details: 540 nm, 37° C., without antibiotic 0.505
# Method: as §1, §5
# The reducible compound solution was prepared with 3-(4,5-dimethyl-2-thiazolyl)-2,5-diphenyl-2H-tetrazolium bromide (MTT) (200 μl of 5 mg/ml methanol), 200 μl glucose solution (10% in water), 200 μl trimethyl-1,4-benzoquinone ETA (1.5 mg/ml methanol) and 12 ml of HEPES buffer (0.05 molar, pH 7.8).
# Test solutions were prepared with the following: 50 μl HEPES buffer, 50 μl polyether antibiotic A23187 (free acid, 0.01 molar in methanol), 10 μl calcium chloride (1 molar) (serial dilutions of buffer and antibiotic were performed to obtain various antibiotic concentrations), 50 μl of the appropriate cell suspension, E. coli (about 10^8 cells/ml) or S. aureus (about 10^8 cells/ml), and 200 μl of the MTT solution. Control solutions were prepared as described in previous Examples.
# Optical density measurements were obtained at 540 nm using a standard spectrophotometer and the change in optical density (ΔOD) was determined after 30 minutes at 37° C. The resulting data are shown in Table VII below for several concentrations of antibiotic. It is clear from the data that the composition of this example was useful for differentiating bacteria.
# S. aureus (gram +) [2] = assay: inhibition of the reduction of RIND XXXV in dry analytical element (Example 6), S. aureus; assay type: cell-based, Staphylococcus aureus (ATCC 25923); details: calcium chloride, 30 minutes, 37° C.
structure (smiles),measurement,setting,value
"CNc1ccc2oc(C[C@H]3O[C@@]4(CC[C@H]3C)O[C@H]([C@H](C)C(=O)c3ccc[nH]3)[C@H](C)C[C@H]4C)nc2c1C(=O)O [calimycin, Calimycin]",dye formation,K. pneumoniae; 15 Minutes,4+
same,dye formation,K. pneumoniae; 30 Minutes,4+
same,dye formation,P. aeruginosa; 15 Minutes,2+
same,dye formation,P. aeruginosa; 30 Minutes,4+
same,dye formation,S. aureus; 15 Minutes,0
same,dye formation,S. aureus; 30 Minutes,0
same,dye formation,S. pyogenes; 15 Minutes,0
same,dye formation,S. pyogenes; 30 Minutes,0
same,Δ Relative Fluorescence after 30 Min.,E. coli (gram -); antibiotic 1 × 10^-4 molar,2804
same,Δ Relative Fluorescence after 30 Min.,E. coli (gram -); antibiotic 2 × 10^-4 molar,2540
same,Δ Relative Fluorescence after 30 Min.,E. coli (gram -); antibiotic 4 × 10^-4 molar,2338
same,Δ Relative Fluorescence after 30 Min.,E. coli (gram -); antibiotic 8 × 10^-4 molar,2411
same,Δ OD after 30 Min.,S. aureus (gram +) [1]; antibiotic 1 × 10^-4 molar,0.089
same,Δ OD after 30 Min.,S. aureus (gram +) [1]; antibiotic 2 × 10^-4 molar,0.096
same,Δ OD after 30 Min.,S. aureus (gram +) [1]; antibiotic 4 × 10^-4 molar,0.065
same,Δ OD after 30 Min.,S. aureus (gram +) [1]; antibiotic 8 × 10^-4 molar,0.028
same,Corrected Percent Inhibition,S. aureus (gram +) [2],70%
